Experimental data as given in paper PMC6337497 (International Journal of Molecular Sciences, 2018).
Entries after “also recorded” stand apart in the source; their conditions may differ. Values belong to the compound of their own block, whether it stands above or below them.

Legend:
[1] = test system: DU145 cells; experiment: Cell cycle analysis (propidium iodide), DU145; assay type: cell-based, Human; conditions: for effect on cell cycle distribution (in words): DU145, 48 h at GI50 dose
Method: (§1) Cells were harvested after 48 h drug treatments and DNA distribution analysis of cells stained with propidium iodide solution (propidium iodide 25 µg/mL, Na-Citrate 3.4 mM, NaCl 9.65 mM, NP-40 0.03%) was performed by an Epics cytofluorimeter (Beckman Coulter Srl, Milan, Italy).

[2] = test system: PC3 cells; experiment: Cell cycle analysis (propidium iodide), PC3; assay type: cell-based, Human; conditions: for effect on cell cycle distribution (in words): PC3, 48 h at GI50 dose
Method: as §1

[3] = pH-metric titration, acid-base behavior (UV-vis, HypSpec); assay type: physicochemical; conditions: for pKa: aqueous solution diluted from a methanol mother solution, 25.0 °C, ionic strength 0.1 M NaNO3, read-out: pKa (keto-enol moiety)
Method: pH-metric titrations were performed in order to assess K3F acidity and predict the most abundant species in physiological condition. […] Overall protonation constants (βHL) were calculated from spectrophotometric data and optimized by means of HypSpec software (Supplementary Table S1). K3F23, K3F24 and K3F33 behaved as weak monoprotic acids, with a pKa value close to 8–8.50 associated to the keto-enol moiety. As for the other two ligands, namely K3F21 and K3F31, the acid-base equilibria were more complex in view of the polyprotic nature of the compounds, and three logβLH values were calculated. Species distribution curves (Supplementary Figure S2) provided reliable prediction of neutral and charged forms as function of pH, and consequently helped to envisage cell penetration and distribution in physiological conditions. […] As for K3F21 and K3F31, they behaved as less weak acids, in fact at pH 7 58% of K3F21 and 65% of K3F31 were found in the mono-dissociated negatively charged form (H2L^−), these percentages increased up to 74% and 86% respectively at pH 7.4. […] This outcome could be attributed to the stabilizing effect of the intramolecular hydrogen bond between the methoxyl and hydroxyl groups on the aromatic ring in the indissociated form of K3F21, which shifts the equilibrium in favor of the neutral species (H3L).
UV-vis spectrophotometric measurements were performed using Jasco V-570 spectrophotometer at 25.0 ± 0.1 °C in the 200–600 nm spectral range employing 1 cm quartz cells. Owing to the poor water solubility of the compounds, a methanol mother solution (5 × 10^−3 M) was diluted in water in order to give 50 µM solutions used for pH-metric titrations. The pH value was varied by adding small amounts of concentrated NaOH or HCl, 25 points in the pH range 3–10. A constant ionic strength of 0.1 M (NaNO3) was maintained in all the experiments. Each titration was performed at least three times. The overall protonation constants (logβLH) were evaluated from spectrophotometric data using the software HypSpec.

[4] = test system: DU145 cells; experiment: MTT cell viability assay, DU145; assay type: cell-based, Human; conditions: for GI50: 48 h treatment, MTT
Method: (§2) Human prostate cancer PC3 cells (CRL 1435, ATCC, Manassas, VA, USA) were grown in Ham’s F12 nutrient medium, human prostate cancer DU145 cells (HTB-81, ATCC, Manassas, VA, USA) in RPMI 1640 medium and human colorectal carcinoma HCT116 cells (CCL-247, ATCC, Manassas, VA, USA) in IMDM medium. All media (Biowest, Nuaillé, France) were supplemented with 10% Foetal Bovine Serum (Gibco-Thermo Fisher Scientific, Waltham, MA, USA), L-glutamine, penicillin, and streptomycin (Euroclone, Milan, Italy), and grown at 37 °C in a humidified 5% CO2 atmosphere.
(§3) DMSO was used as control.
(§4) The inhibition of cell proliferation was measured by colorimetric MTT assay and the concentration at which cellular growth is inhibited by 50% (GI50) was determined. Briefly, cells were seeded into 96-well plates at a density of 2000 cells/well. The following day, cells were treated with the indicated compounds and analyzed for cell viability after 48 h. 5 mg/mL thiazolyl blue tetrazolium bromide (Sigma-Aldrich, St. Louis, MO, USA) was added to each well at a final concentration of 0.5 mg/mL and the plates were incubated at 37 °C for 2 h. Medium containing unconverted MTT was removed and 100 µL MTT solvent (4 mM HCl, 0.1% NP-40 in isopropyl alcohol) was added to each well. The plate was gently rotated on an orbital shaker in the dark for 15 min, before the measurements of absorbance at 570 nm. The viability of untreated cells was arbitrarily set at 100%.

[5] = test system: PC3 cells; experiment: MTT cell viability assay, PC3; assay type: cell-based, Human; conditions: for GI50: 48 h treatment, MTT
Method: as §2, §3, §4

[6] = Antioxidant activity (DPPH assay); conditions: [DPPH] = 60 µM, methanol, 120 min; read-out: IC50, DPPH radical scavenging
Method: The antioxidant activity of the compounds was evaluated in terms of hydrogen donating or radical scavenging ability, using the stable DPPH radical (1,1-diphenyl-2-picrylhydrazyl radical). A variable amount (15, 30, 45, 75, 105, and 150 µL) of a methanol solution (1.2 mM) of each compound was placed in a cuvette, and 3 mL of a 60 µM methanol solution of DPPH was added. Absorbance measurements were initiated immediately. The decrease in absorbance at 517 nm was monitored every minute up to 5′, then every 5′ up to 30′ and every 30′ until reaction reaches completion and absorbance stabilizes attaining a plateau after 120′. Methanol was used to zero the spectrophotometer. The absorbance of the DPPH radical without K3F compound, i.e., the control, was measured daily, and concentration was calculated applying Equation (2) (2) [DPPH^·]=A−1.006/10970
The percentage of inhibition (%In) of the DPPH radical by each sample was calculated according to the formula (3) %In=A0−At/A0×100 where A0 represents the absorbance of the control (DPPH radical) at time 0, while At refers to the absorbance of the mixture DPPH/antioxidant at time t (120 min). Values of absorbance were corrected taking into account volume dilution and all determinations were performed in triplicate.

[7] = test system: DU145 cells; experiment: Western blot of total cellular lysates, DU145; assay type: cell-based, Human; conditions: DU145, 48 h at GI50 dose
Method: (§8) Actin was used as loading control. Whole-cell protein extracts were prepared by resuspending cells into 1X SDS sample buffer (25 mM Tris-HCl pH 6.8, 1.5 mM EDTA, 20% glycerol, 2% SDS, 5% β-mercaptoethanol, 0.0025% Bromophenol blue). Equivalent amounts of cellular extracts were resolved by SDS-PAGE, electrotransferred to PVDF membrane (GE Healthcare Italia, Milan, Italy) and immunoblotted with the following primary antibodies: anti-phospo-H2AX (sc-101696), anti-p53 (DO1) (sc-126), anti-actin ([MUT]) (sc-1616) and anti-PARP (sc-8007) antibody from Santa Cruz Biotecnology, Inc, Dallas, TX, USA.; phospho-specific AKT antibody S473 (#9018) and T308 (#9275), Akt antibody (#9272 and #2967), phospho-specific ERK1/2 antibody T202/Y204 (#4370), ERK1/2 antibody (#4669), phospho-specific p38 MAPK antibody T180/Y182 (#9211), and p38 antibody (#9212) were purchased from Cell Signaling Technologies, Danvers, MA, USA. Membranes were blotted and scanned with Bio-Rad ChemiDocTM Touch Imaging System (Bio-Rad, Hercules, CA, USA), using chemiluminescent detection reagents from Cyanagen, Bologna, Italy (Westar ηC and Supernova HRP substrates for Western blotting).

[8] = test system: PC3 cells; experiment: RT-qPCR gene transcription, PC3; assay type: cell-based, Human; conditions: PC3, 48 h at GI50 dose
Method: (§5) Data are presented as relative transcript levels, normalized with RPL21 housekeeping gene, with DMSO levels arbitrarily set at 1.
(§6) RNA was extracted from cells using RNeasy kit (Qiagen, Venlo, The Netherlands) and reversed transcribed with a Moloney murine leukemia virus reverse transcriptase (Promega, Madison, WI, USA). Quantitative real-time PCRs were performed using SsoAdvanced Universal SYBR Green Supermix (Bio-Rad, Hercules, CA, USA) on a Bio-Rad CFX Connect™ real-time PCR detection system. Primer sequences are available upon request. The housekeeping gene Rpl21 was used as a loading control. The relative fold change enrichments of real-time PCR samples were calculated with the formula 2^−(ΔΔCt), where −(ΔΔCt) = −[(Ct target − Ct Rpl21)treated − (Ct target − Ct Rpl21)DMSO].

[9] = test system: PC3 cells; experiment: Cell migration (wound) assay, PC3; assay type: cell-based, Human; conditions: PC3, GI50 dose, 40 h
Method: (§7) 4 × 10^5 prostate cancer cells were plated in a 12-well plate. Approximately 24 h later, when the cells were 100% confluent, the monolayer was scratched using a 200 µL pipette tip. […] Three biological replicates were performed. Three random pictures were taken for each treated well per experiment and the areas of the wounds measured using ImageJ software. The percentage of wound recovery was then calculated using the formula: (final area-initial area)/initial area × 100%.

[10] = test system: PC3 cells; experiment: Western blot of total cellular lysates, PC3; assay type: cell-based, Human; conditions: PC3, 48 h at GI50 dose
Method: as §8

[11] = test system: DU145 cells; experiment: RT-qPCR gene transcription, DU145; assay type: cell-based, Human; conditions: DU145, 48 h at GI50 dose
Method: as §5, §6

[12] = test system: DU145 cells; experiment: Cell migration (wound) assay, DU145; assay type: cell-based, Human; conditions: DU145, GI50 dose, 16 h
Method: as §7

[13] = test system: metastatic CRPC; design: method as in PMID 12644816, PMID 11448901; conditions: Phase II clinical trial; cited from earlier work
[14] = test system: DU145 cells; experiment: K3F21/docetaxel co-administration, MTT and CompuSyn, DU145; assay type: cell-based, Human; conditions: DU145, DTX 20nM co-administered with K3F21, 48 h
Method: as §4
The ability of K3F21 and docetaxel to act synergistically with regard to growth inhibition was determined using CompuSyn software (ComboSyn, Inc., freely available at http://www.combosyn.com). Combination index (CI) and drug reduction index (DRI) were calculated for each concentration of drugs mixture, as indicated in the text. CI <1, =1 or >1 indicates synergism, additive effect, or antagonism, respectively. DRI >1 or <1 indicates favorable or not favorable dose-reduction.

[15] = Kinetic stability in physiological conditions (UV-vis); assay type: physicochemical; conditions: after 24 h; PBS 0.01 M, NaCl 0.1M, pH = 7.4, 37 °C in darkness
Method: Figure 2 Stability and radical scavenging ability of K3F derivatives. (A) Residual % of K3F compounds vs. time (PBS 0.01 M, NaCl 0.1M, pH = 7.4, 37 °C in darkness). Residual % is calculated as At·100/A0, where At and A0 stand for absorbance at λmax at time t and time zero, respectively. (B) Percentage of inhibition of free DPPH radical ([DPPH^·] = 60 µM) in the presence of K3F compounds at increasing concentrations. Compounds concentration is expressed as molar ratio (compound/DPPH).
[…] 100 μM solutions of the ligands were prepared in 0.1 M Tris-HCl buffer (pH 7.4) with constant ionic strength (0.1 M NaNO3). Spectra were recorded every 30 min. All profiles were linearized by hyperbolic function (Equation (1)), which represents an empirical model that well describes drug decomposition or release. t/f% = at + b(1) where f% is the fraction of residual compound at time t (min) expressed as percentage referred to starting concentration at time zero.

pKa [3]: 8 to 8.5 | prevailing species ([3]; pH 7): neutral one (HL) | GI50 ([4]; Homo sapiens, DU-145): 13.2 µM | GI50 ([5]; Homo sapiens, PC-3, 48 h): 16.7 µM
Compound: COc1cc(/C=C/C(=O)C(CCCN2C(=O)c3ccccc3C2=O)C(=O)/C=C/c2ccc(OC(C)=O)c(OC)c2)ccc1OC(C)=O [K3F24]
effect on cell cycle distribution (in words) [1]: ability to arrest cell cycle progression | effect on cell cycle distribution (in words) [2]: doubled the percentage of G2/M cells

mono-dissociated negatively charged form (H2L−) ([3]; pH 7): 65% | mono-dissociated negatively charged form (H2L−) ([3]; pH 7.4): 86% | IC50 [6]: 120 µM
Compound: O=C(/C=C/c1ccc(O)cc1)C(CCCN1C(=O)c2ccccc2C1=O)C(=O)/C=C/c1ccc(O)cc1 [K3F31]

pKa [3]: 8 to 8.5 | prevailing species ([3]; pH 7): neutral one (HL) | GI50 ([4]; Homo sapiens, DU-145): 12.5 µM | GI50 ([5]; Homo sapiens, PC-3, 48 h): 12.4 µM
Compound: COc1cccc(/C=C/C(=O)C(CCCN2C(=O)c3ccccc3C2=O)C(=O)/C=C/c2cccc(OC)c2)c1 [K3F23]
effect on cell cycle distribution (in words) [1]: both arrested the G2/M progression and induced cell death | effect on cell cycle distribution (in words) [2]: doubled the percentage of G2/M cells

GI50 ([4]; Homo sapiens, DU-145): 17.3 µM | GI50 ([5]; Homo sapiens, PC-3, 48 h): 21 µM
Compound: COc1cc(C=CC(=O)CC(=O)C=Cc2ccc(O)c(OC)c2)ccc1O [Curcumin, 1,7-bis [4-hydroxy-3-methoxyphenyl]-1,6-heptadiene-3,5-Dione, reference compound]
DU145 % CELLS SubG1 ([1]; 48 h at GI50 concentration): 5% | effect on cell cycle distribution (in words) [1]: mainly acts as a cytotoxic drug | ERK1/2 phosphorylation [7]: increased | phospho-p38 expression [7]: no changes were observed | γH2AX expression (marker of DNA damage) [7]: increased γH2AX in PC3 only | Noxa transcription [8]: induced | transcription of CDK inhibitors p21 and p27 [8]: increased | PC3 % CELLS G2/M ([2]; 48 h at GI50 concentration): 37% | effect on cell cycle distribution (in words) [2]: significantly increases SubG1 events | cell migration (wound recovery) [9]: inhibitory effects on the migratory capacity | ERK1/2 phosphorylation [10]: increased | phosphorylation of AKT in Ser473 and Thr308 [10]: inhibited | γH2AX expression (marker of DNA damage) [10]: increased | Noxa transcription [11]: induced | cell migration (wound recovery) [12]: inhibitory effects on the migratory capacity

Compound: O=C1CCC(N2C(=O)c3ccccc3C2=O)C(=O)N1 (centres unmarked) [thalidomide]
patients with a decline in PSA of ≥40% [13]: 30–40%

IC50 ([4]; Homo sapiens, DU-145, DU145, MTT assay): 17 nM | IC50 ([5]; Homo sapiens, PC-3, PC3, MTT assay): 30 nM
Compound: CC(=O)O[C@@]12CO[C@@H]1C[C@H](O)[C@@]1(C)C(=O)[C@H](O)C3=C(C)[C@@H](OC(=O)[C@H](O)[C@@H](NC(=O)OC(C)(C)C)c4ccccc4)C[C@@](O)([C@@H](OC(=O)c4ccccc4)[C@H]21)C3(C)C [Docetaxel, reference compound]
effect on cell cycle distribution (in words) [1]: high cytotoxic effect associated to a robust increase in SubG1 events | effect on cell cycle distribution (in words) [2]: high cytotoxic effect associated to a robust increase in SubG1 events | DTX drug reduction index (DRI) [14]: 2.9

prevailing species ([3]; pH 7): neutral one (HL) | GI50 [4]: 23.3 µM | residual percentage [15]: ~60% | GI50 [5]: 21.8 µM
Compound: 2-((4Z,6E)-4-cinnamoyl-5-hydroxy-7-phenylhepta-4,6-dien-1-yl)isoindoline-1,3-dione [K3F33]
effect on cell cycle distribution (in words) [1]: ability to arrest cell cycle progression | effect on cell cycle distribution (in words) [2]: doubled the percentage of G2/M cells; also recorded: significantly increases SubG1 events
